Data: patent US20070219234A1, “Thienopyridine Derivatives” (priority 2004, published 2007)

Tested on: ST2 cells
Assay: Osteoblast differentiation test (alkaline phosphatase activity)
Assay type: cell-based
Conditions: Mus musculus, ST-2, 96 h; at 0.03 μg/mL; culturing for four days; control group (0.1% DMSO) = 100%; read-out: alkaline phosphatase activity increase rate
Description: ST2 cells (available from Institute of Physical and Chemical Research) which are stroma cells derived from mouse marrow were used. In this test, α-MEM medium (available from GIBCO BRL Cat. No. 10370-021) with which 10% (v/v) inactivated fetal bovine serum (available from Hyclone Company, FBS) and 1% (v/v) Penicillin-Streptomycin, Liquid (available from GIBCO BRL Cat. No. 15140-122) are mixed (hereinbelow abbreviated as 10% -FBS-αMEM) was used. Every culture in this test was conducted in a CO2 incubator (37° C., 95% humidity, 5% CO2).
The cells mentioned above were harvested with 2 mL of 0.25% trypsin solution (available from GIBCO BRL Cat. No. 15050-065) and after they were dispersed by adding 10 mL of 10% -FBS-αMEM, the cells were collected by centrifugal separation (25° C., 800 rpm, 5 minutes). A cell suspension containing 40,000 cells/mL was prepared from the collected cells using 10% -FBS-αMEM.
The cell suspension was dispensed to the wells of a 96 well microplate (Falcon company) in an amount of 100 μL per well so as to achieve 4,000 cells/well and cultured for 24 hours. Compounds were dispensed to the wells in final concentrations of 0.01, 0.03, 0.1, 0.3 μg/ml except the following control group. DMSO was dispensed to the wells of the control group in a final concentration of 0.1% (v/v). Alkaline phosphatase (ALP) activity was measured for each group after culturing for four days.
The measurement of ALP activity was performed as follows. That is, after the whole medium was removed from each well of the culturing plate, each well was washed twice by dispensing and removing 100 μL of Dulbecco's phosphate buffer (available from GIBCO BRL Cat. No. 14190-144). Cell lysing solution containing 10 mM MgCl2 and 2%(v/v) TritonX-100 (Sigma company) was prepared and 50 μL/well of the cell lysing solution was dispensed and the mixture was stirred at room temperature for five minutes. An ALP substrate solution containing 50 mM of diethanolamine (Wako Pure Chemical Industries, Ltd. Cat. No. 099-03112) and 20 mM of […] (Wako Pure Chemical Industries, Ltd. Cat. No. 147-02343) was prepared and 50 μL/well of the ALP substrate solution was dispensed and after allowing to stand at room temperature for 10 minutes, absorbance was measured using a microplate reader (Bio-rad company). Alkaline phosphatase activity increase rate (%) in the group blended with test compounds was calculated assuming the observed value of the control group of each plate to be 100% and evaluated as the osteoblast differentiation promoting activity.

Row | Structure (SMILES) | activity at 0.03 µg/mL [%]
1 | NC(=O)c1sc2nccc(N3CCCN(c4cccnc4)CC3)c2c1N [Example 96, 3-amino-4-(4-pyridin-3-yl-1,4-diazepan-1-yl)thieno[2,3-b]pyridine-2-carboxamide] | > 150

Tested on: not given
Assay: not given
Conditions: not given

Row | melting point | Structure (SMILES)
2 | 194 to 195 °C | NC(=O)c1sc2nccc(N3CCCN(Cc4ccccc4)CC3)c2c1N [Example 56, 3-amino-4-(4-benzyl-1,4-diazepan-1-yl)thieno[2,3-b]pyridine-2-carboxamide]
3 | 92 to 96 °C | NC(=O)c1sc2nccc(N3CCCN(c4ccc(Cl)cc4)CC3)c2c1N [Example 60, 3-amino-4-[4-(4-chlorophenyl)-1,4-diazepan-1-yl]thieno[2,3-b]pyridine-2-carboxamide]
4 | 206 to 210 °C | NC(=O)c1sc2nccc(N3CCCN(c4ccccc4Cl)CC3)c2c1N [Example 61, 3-amino-4-[4-(2-chlorophenyl)-1,4-diazepan-1-yl]thieno[2,3-b]pyridine-2-carboxamide]
5 | 151 to 153 °C | N#Cc1ccc(N2CCCN(c3ccnc4sc(C(N)=O)c(N)c34)CC2)cc1 [Example 62, 3-amino-4-[4-(4-cyanophenyl)-1,4-diazepan-1-yl]thieno[2,3-b]pyridine-2-carboxamide]
6 | 204 to 208 °C | NC(=O)c1sc2nccc(N3CCCN(c4ccc(C(F)(F)F)cc4)CC3)c2c1N [Example 63, 3-amino-4-[4-(4-trifluoromethylphenyl)-1,4-diazepan-1-yl]thieno[2,3-b]pyridine-2-carboxamide]
7 | 179 to 184 °C | COc1ccccc1N1CCCN(c2ccnc3sc(C(N)=O)c(N)c23)CC1 [Example 67, 3-amino-4-[4-(2-methoxyphenyl)-1,4-diazepan-1-yl]thieno[2,3-b]pyridine-2-carboxamide]
8 | 194 to 197 °C | Cc1cc(N2CCCN(c3ccnc4sc(C(N)=O)c(N)c34)CC2)ccc1F [Example 69, 3-amino-4-[4-(4-fluoro-3-methylphenyl)-1,4-diazepan-1-yl]thieno[2,3-b]pyridine-2-carboxamide]
9 | 206 to 209 °C (dec.) | Cc1ccccc1N1CCCN(c2ccnc3sc(C(N)=O)c(N)c23)CC1 [Example 70, 3-amino-4-[4-(2-toluyl)-1,4-diazepan-1-yl]thieno[2,3-b]pyridine-2-carboxamide]
10 | 79 to 83 °C | Cc1ccc(N2CCCN(c3ccnc4sc(C(N)=O)c(N)c34)CC2)cc1F [Example 71, 3-amino-4-[4-(3-fluoro-4-methylphenyl)-1,4-diazepan-1-yl]thieno[2,3-b]pyridine-2-carboxamide]
11 | 247 to 250 °C | Cc1cc(N2CCN(c3ccccc3)CC2)c2c(N)c(C(N)=O)sc2n1 [Example 75, 3-amino-6-methyl-4-(4-phenylpiperazin-1-yl)thieno[2,3-b]pyridine-2-carboxamide]
12 | 213 to 215 °C | NC(=O)c1sc2nccc(N3CCCN(c4cccc(Cl)c4)CC3)c2c1N [Example 78, 3-amino-4-[4-(3-chlorophenyl)-1,4-diazepan-1-yl]thieno[2,3-b]pyridine-2-carboxamide]
13 | 211 to 213 °C | NC(=O)c1sc2nccc(N3CCCN(c4ccc(OCc5ccccc5)cc4)CC3)c2c1N [Example 79, 3-amino-4-{4-[4-(benzyloxy)phenyl]-1,4-diazepan-1-yl}thieno[2,3-b]pyridine-2-carboxamide]
14 | 180 to 185 °C | NC(=O)c1sc2nccc(N3CCCN(c4cccc([N+](=O)[O-])c4)CC3)c2c1N [Example 80, 3-amino-4-[4-(3-nitrophenyl)-1,4-diazepan-1-yl]thieno[2,3-b]pyridine-2-carboxamide]
15 | 181 to 184 °C | NC(=O)c1sc2nccc(N3CCCN(c4ccc(F)c(Cl)c4)CC3)c2c1N [Example 81, 3-amino-4-[4-(3-chloro-4-fluorophenyl)-1,4-diazepan-1-yl]thieno[2,3-b]pyridine-2-carboxamide]
16 | 170 to 173 °C | NC(=O)c1sc2nccc(N3CCCN(c4ccc(Br)cc4)CC3)c2c1N [Example 82, 3-amino-4-[4-(4-bromophenyl)-1,4-diazepan-1-yl]thieno[2,3-b]pyridine-2-carboxamide]
17 | 195 to 197 °C | NC(=O)c1sc2nccc(N3CCCN(c4cccc(C(F)(F)F)c4)CC3)c2c1N [Example 86, 3-amino-4-{4-[3-(trifluoromethyl)phenyl]-1,4-diazepan-1-yl}thieno[2,3-b]pyridine-2-carboxamide]
18 | 163 to 165 °C | NC(=O)c1sc2nccc(N3CCCN(c4ccc(OC(F)(F)F)cc4)CC3)c2c1N [Example 87, 3-amino-4-{4-[4-(trifluoromethoxy)phenyl]-1,4-diazepan-1-yl}thieno[2,3-b]pyridine-2-carboxamide]

Row | melting point | Structure (SMILES)
19 | 228 to 231 °C | NC(=O)c1sc2nccc(N3CCCN(c4c(F)c(F)nc(F)c4F)CC3)c2c1N [Example 88, 3-amino-4-[4-(2,3,5,6-tetrafluoropyridin-4-yl)-1,4-diazepan-1-yl]thieno[2,3-b]pyridine-2-carboxamide]
20 | 228 to 231 °C | NC(=O)c1sc2nccc(N3CCCN(c4ncnc5ccccc45)CC3)c2c1N [Example 89, 3-amino-4-(4-quinazolin-4-yl-1,4-diazepan-1-yl)thieno[2,3-b]pyridine-2-carboxamide]
21 | 114 to 117 °C | Cc1ccc(N2CCCN(c3ccnc4sc(C(N)=O)c(N)c34)CC2)cc1[N+](=O)[O-] [Example 90, 3-amino-4-[4-(4-methyl-3-nitrophenyl)-1,4-diazepan-1-yl]thieno[2,3-b]pyridine-2-carboxamide]
22 | 231 to 232 °C | CC(C)(C)c1ccc(N2CCCN(c3ccnc4sc(C(N)=O)c(N)c34)CC2)cc1 [Example 92, 3-amino-4-[4-(4-tert-butylphenyl)-1,4-diazepan-1-yl]thieno[2,3-b]pyridine-2-carboxamide]
23 | 215 to 217 °C | Cc1cccc(N2CCN(c3ccnc4sc(C(N)=O)c(N)c34)CC2C)c1 (stereo not shown) [Example 95, 3-amino-4-[3-methyl-4-(3-methylphenyl)piperazin-1-yl]thieno[2,3-b]pyridine-2-carboxamide]
24 | 288 to 291 °C (dec.) | NC(=O)c1sc2nccc(N3CCCN(c4ccncc4)CC3)c2c1N [Example 100, 3-amino-4-(4-pyridin-4-yl-1,4-diazepan-1-yl)thieno[2,3-b]pyridine-2-carboxamide]
25 | 214 to 215 °C | CC(=O)N1CCCN(c2ccnc3sc(C(N)=O)c(N)c23)CC1 [Example 103, 4-(4-acetyl-1,4-diazepan-1-yl)-3-aminothieno[2,3-b]pyridine-2-carboxamide]
26 | 214 to 217 °C | CS(=O)(=O)N1CCCN(c2ccnc3sc(C(N)=O)c(N)c23)CC1 [Example 104, 3-amino-4-[4-(methylsulfonyl)-1,4-diazepan-1-yl]thieno[2,3-b]pyridine-2-carboxamide]
27 | 232 to 234 °C | NC(=O)c1sc2nccc(N3CCCN(c4ccc(Cl)nn4)CC3)c2c1N [Example 105, 3-amino-4-[4-(6-chloropyridazin-3-yl)-1,4-diazepan-1-yl]thieno[2,3-b]pyridine-2-carboxamide]
28 | 238 to 241 °C | COc1ccnc2sc(C(N)=O)c(N)c12 [Example 107, 3-amino-4-methoxythieno[2,3-b]pyridine-2-carboxamide]
29 | 241 to 243 °C | CCOc1ccnc2sc(C(N)=O)c(N)c12 [Example 108, 3-amino-4-ethoxythieno[2,3-b]pyridine-2-carboxamide]
30 | 216 to 221 °C | NC(=O)c1sc2nccc(OCc3ccccc3)c2c1N [Example 110, 3-amino-4-(benzyloxy)thieno[2,3-b]pyridine-2-carboxamide]
31 | 238 to 240 °C (dec.) | CC(C)Oc1ccnc2sc(C(N)=O)c(N)c12 [Example 111, 3-amino-4-isopropoxythieno[2,3-b]pyridine-2-carboxamide]
32 | 179 to 180 °C | NC(=O)c1sc2nccc(OC3CCCCCC3)c2c1N [Example 112, 3-amino-4-(cycloheptyloxy)thieno[2,3-b]pyridine-2-carboxamide]
33 | 230 to 235 °C | CCSc1ccnc2sc(C(N)=O)c(N)c12 [Example 114, 3-amino-4-(ethylthio)thieno[2,3-b]pyridine-2-carboxamide]
34 | 195 to 197 °C | NC(=O)c1sc2nccc(SC3CCCCC3)c2c1N [Example 115, 3-amino-4-(cyclohexylthio)thieno[2,3-b]pyridine-2-carboxamide]
